Laboratory results: patent US20050038113A1, “Valproic acid and derivatives for the combinatorial therapeutic treatment of human cancers and for the treatment of tumor metastasis and minimal residual disease” (G2M Cancer Drugs AG, priority 2001, published 2005)

How the values were obtained:
[1] = tested on: MDA-MB468 breast carcinoma cells; assay: MTT cell viability assay; assay type: cell-based, Human
Method: (§1) Human MDA-MB468, MDA-MB453 and SKBR3 breast carcinoma cells and A431 squamous cell carcinoma cells were maintained in Dulbecco's modified Eagle's medium (DMEM, BioWhittaker, Verviers, Belgium) supplemented with 10% heat inactivated fetal bovine serum (FBS), 2 mM L-glutamine, 100 units/ml penicillin, and 100 μg/ml streptomycin.
(§2) Tumor cells were seeded in 96 well plates at a density of 1×10^4 cells/well in normal growth medium. […] Control cells were grown in the absence of valproic acid or antibodies. 10 μl of 10 mg/ml 3-(4,5-dimethylthiazole-2-yl)-2,5 diphenyltetrazolium bromide (MTT) (Sigma, Deisenhofen, Germany) in PBS were added to each well and the cells were incubated for another 3 h. Cells were lysed by the addition of 90 μl of lysis buffer (20% SDS in 50% dimethyl formamide, pH 4.7). After solubilization of the formazan product, the absorption at 590 nm was determined in a microplate reader (Dynatech, Denkendorf, Germany) and the relative amount of viable cells in comparison to cells cultured without the addition of valproic acid or antibodies was calculated.

[2] = tested on: MDA-MB453 breast carcinoma cells; assay: MTT cell viability assay; assay type: cell-based, Human; settings: 70 h
Method: as §1, §2

[3] = tested on: MT450 breast cancer cells; assay: MT450 rat breast cancer model, subcutaneous tumor growth and lung metastasis; assay type: in vivo
Method: MT450 cells were grown in DMEM/W10% FCS medium and tested for absence of mycoplasms just prior to injection. Cells were washed twice in PBS and suspended to a density of 5×10^6 cells per ml of PBS. 5×10^5 cells in 0.1 ml of PBS were injected into each rat. […] Rats were left to grow primary tumors for 21 days. […] The solution was sterile filtered. The compound was applied by i.p. injection. […] Two doses per day were applied. Control animals received equal amounts of a sterile isotonic sodium chloride solution.
The experiment was terminated when tumor size in one of the rats of the control group had reached the legal limit of 50 mm. Necropsy at that time was performed on all rats of the experiment to assess lung metastasis. […] Metastasis was also found in 7 out of 8 VPA-treated rats. However, size and number of metastases were much smaller compared to NaCl-treated rats. A dose finding experiment had shown that the chosen dosage protocol lead to high initial serum levels (e.g. 3.6 mM at 1 hour after i.p. injection) which rapidly dropped (e.g. 0.25 mM at 4 hours after i.p. injection) below those levels which are maintained during therapy of epilepsy in human.

histone deacetylases = settings: cited from earlier work
[4] = tested on: control cells (lin-, PINCO empty vector or uninfected); assay: myeloid differentiation (Mac-1, FACS) of transduced hematopoietic progenitors; assay type: cell-based, Murine
Method: Murine hematopoietic progenitors (lin-) were transduced with a retroviral vector encoding PML-RAR, and GFP as a marker. […] Myeloid differentiation was scored by analyzing the presence of the differentiation marker Mac-1.
Murine hematopoietic progenitors were purified from the bone marrow of 129 mice on the basis of the absence of lineage differentiation markers (lin-). Lin- cells were grown for 48 hours in the presence of IL-3 (20 ng/ml), IL-6 (20 ng/ml), SCF (100 ng/ml), and then attached to non-tissue culture treated plates coated with Retronectin (Takara-Shuzo). Cells were then transduced by incubation with the supernatant from Phoenix ecotropic packaging cells (supplemented with fresh serum, and IL-3, IL-6, and SCF as above), transiently transfected with the control retroviral vector PINCO, or PINCO-PML-RAR. After 60 hours, GFP+cells were sorted by FACS, and seeded in methylcellulose plates supplemented as above, plus G-CSF (60 ng/ml) and GM-CSF (20 ng/ml). […] After 8-10 days, cells were analyzed for the presence of the myeloid differentiation marker Mac-1 by FACS. […] Uninfected cells, and cells infected with the control PINCO vector behaved identically (data not shown).
For FIG. 11 Lin- cells were transduced with the indicated vectors (control: PINCO, empty vector encoding GFP alone), and GFP+cells were sorted by FACS. […] Differentiation was assessed after 8-10 days by analysis of the myeloid differentiation marker Mac-1.

[5] = tested on: SKOV3 ovarian carcinoma cells; assay: MTT cell viability assay; assay type: cell-based, Human; settings: 40 h
Method: Human SKBR3 breast carcinoma cells, A431 squamous cell carcinoma cells and SKOV3 ovarian carcinoma cells were maintained in Dulbecco's modified Eagle's medium (DMEM, BioWhittaker, Verviers, Belgium) supplemented with 10% heat-inactivated fetal bovine serum (FBS), 2 mM L-glutamine, 100 units/ml penicillin, and 100 μg/ml streptomycin.
Tumor cells were seeded in 96 well plates at a density of 1×10^4 cells/well in normal growth medium. SKBR3, A431 and SKOV3 cells were treated for 40 h with valproic acid at a final concentration of 3 mM, or 10 ng/ml of the recombinant anti-ErbB2 single chain antibody-toxin scFv(FRP5)-ETA (Wels et al., Cancer Res. 52: 6310-6317, 1992), or 10 ng/ml of the recombinant anti-EGF receptor single chain antibody-toxin scFv(14E1)-ETA (Schmidt et al., Brit. J. Cancer 75: 1575-1584, 1997), or a combination of valproic acid with either scFv(FRP5)-ETA or scFv(14E1)-ETA at the same concentrations. […] After solubilization of the formazan product, the absorption at 590 nm was determined in a microplate reader (Dynatech, Denkendorf, Germany) and the relative amount of viable cells in comparison to cells cultured without the addition of valproic acid or antibody-toxins was calculated.

SMILES: CCCC(CCC)C(=O)O [VPA, 2-propylpentanoic acid]
- cell viability, combination treatment ([1]; 3 mM VPA + 2 μg/ml c225, 70 h): synergistic reduction of cell viability
- cell viability ([1]; single reagent, 70 h, valproic acid 3 mM, c225 2 μg/ml): inhibit the viability
- cell viability, combination treatment ([2]; 3 mM VPA + 2 μg/ml Herceptin): synergistic reduction of cell viability
- cell viability ([2]; single reagent, valproic acid 3 mM, Herceptin 2 μg/ml): inhibit the viability
- size and number of metastases compared to NaCl-treated rats ([3]; 1.25 mmol VPA per kg BW i.p., two doses per day): much smaller
- growth of the primary tumors (tumor volume) ([3]; 1.25 mmol VPA per kg BW i.p., two doses per day, vs sodium chloride solution): delays tumor expansion
- rats with lung metastasis at necropsy ([3]; VPA-treated rats, 1.25 mmol/kg i.p. twice daily, all rats of the control group showed metastasis): 7 out of 8
- histone deacetylase inhibition (histone deacetylases): acts as an inhibitor of histone deacetylases
- number of colonies ([4]; VPA at higher concentrations (>3 mM), most likely induction of cell death, data not shown): reduction in the number of colonies
- number of Mac-1+ cells and number of colonies ([4]; VPA up to concentrations of 1 mM): did not cause significant changes
- differentiation of control cells ([4]; VPA with cytokines): did not affect differentiation
- cell viability, combination treatment ([5]; 3 mM valproic acid + 10 ng/ml scFv(FRP5)-ETA): pronounced additive therapeutic effect
- cell viability ([5]; single reagent, valproic acid 3 mM, scFv(FRP5)-ETA 10 ng/ml): inhibit the viability
